Data taken from article PMC10885983 (Antibiotics, 2024).
In brackets after ≈: the same amount, converted by molar mass. Like-named read-outs stand apart in the source and are kept apart here.

How the values were obtained:
[1] = rat, in vivo, po, cited from earlier work
[2] = Pharmacokinetics of rhodomyrtone in rats after a single oral dose (HPLC-UV plasma analysis, non-compartment model); assay type: in vivo, Sprague Dawley rats; details: for AUC(0-t): read-out: AUC0–8; for Tmax / Vd/F: po; for k el: read-out: λz (converted)
Method: The HPLC method was used to quantify the concentration of rhodomyrtone in rat plasma after a single oral administration of 50 and 100 mg/kg. Blood samples were collected from tail veins at 0, 0.25, 0.5, 1, 2, 3, 4, 5, 6, 7 and 8 h. Rat plasma samples were prepared as described in Section 3.3. Rhodomyrtone was analyzed using a Bondapak C18 HPLC column at 25 °C. […] After several trials, the mobile phase was optimized to achieve good resolution and symmetric peak shapes for both rhodomyrtone and papaverine. […] An appropriate wavelength at 302 nm gave good sensitivity, with no interfering substance of other components. […] The curve of the rhodomyrtone concentration–time profiles was fitted in a non-compartment pharmacokinetic model due to the whole organism as a single compartment where the drug distributes homogeneously and instantaneously, resulting in a constant volume of distribution. The non-compartment model is multifaceted, and it is acceptable for bioequivalence studies.
An aliquot of each rat plasma sample (100 µL) or validation sample was pipetted into a 1.5 mL microcentrifuge tube, spiked with 25 µL papaverine working standard, then the rat plasma was deproteinized with 75 µL acetonitrile, mixed for 30 s and dropped off 5 min to precipitate the protein. The insoluble content was separated from plasma by centrifugation at 5000× g at 10 °C for 15 min, and we collected the supernatant. All samples were filtered through a 0.22 μm PTFE membrane filter. Subsequently, each sample was transferred into glass insert vials. The HPLC injection volume was 80 µL.
HPLC system consisted of Waters Alliance 2695, a model 2487 UV-Vis detector (Waters Associates, Milford, MA, USA). The maximum UV absorbance of rhodomyrtone was detected from 250 to 310 nm. Therefore, the detection wavelength was set at wavelength 302 nm. The chromatographic data were collected and analyzed using Millenium 32® software. Waters Bondapak C18 column, 5 μm, 4.6 mm × 150 mm, was used to set the standard for HPLC drug analytical measurement procedure. The mobile phase consisted of a mixture of acetonitrile and deionized water (80:20% v/v). The mobile phase was pre-filtered through a 0.20 μm filter and was delivered at a rate of 1 mL/min.
Male Sprague Dawley rats weighing 250–350 g were housed in separate stainless cages under a controlled environment (temperature at 22 ± 2 °C and relative humidity of 55 ± 10% with 12 h light and 12 h dark cycles) at the Southern Laboratory Animal Facility, Faculty of Science, Prince of Songkla University, Thailand. During the experimental period, they received a standard rodent diet with free access to ad libitum drinking water. Rats were divided into two groups, each consisting of 12 animals. Each group received a single oral dose of rhodomyrtone (dissolved in medium-chain triglyceride) at 50 mg/kg body weight (Group 1) and 100 mg/kg body weight (Group 2). The animals were fasted for 10 h prior to the experiment. An initial blood sample was taken by clipping the end of the animals’ tails. Blood samples (500 μL) were collected at time intervals of 0 (predose), 0.25, 0.5, 1, 2, 3, 4, 5, 6, 7 and 8 h. The samples were transferred to a heparinized microcentrifuge tube and centrifuged at 2500× g at 10 °C for 10 min. The plasma samples were stored at −80 °C until HPLC analysis.
The individual plasma concentration–time profiles were visually inspected to determine the maximum plasma concentration (Cmax), the minimum plasma concentration (Cmin) and the time to maximum plasma concentration (tmax). WinNonlin Version 1.1 (Scientific Consulting, Apex, NC, USA) was used to analyze the data and calculate for elimination half-life time (t1/2), elimination rate constant (λz), volume of distribution (Vz/F), area under the concentration–time curve between 0 and 8 h (AUC0–8) and the area under the concentration–time curve between 0 and infinity (AUC0–∞). The results were expressed as mean values ± standard deviation (SD).

[3] = Bench-top stability in plasma at 25 °C; assay type: in vitro ADME, rat; details: for Bench-top stability, Accuracy (%): n = 5
Method: The mean recovery was determined at low, medium and high concentrations from five replicates. The long-term storage stability at −80 °C was determined after 15, 30, 60 and 90 d. Bench-top stability testing was also conducted. […] The freeze–thaw cycles were stabilized. Rhodomyrtone was spiked in blank plasma, then stored in a freezer (−20 °C) and thawed every 24 h at room temperature (25 °C) for three cycles prior to extraction.

[4] = Freeze–thaw stability in plasma; assay type: in vitro ADME, rat; details: n = 5
Method: (§1) The mean recovery was determined at low, medium and high concentrations from five replicates. The long-term storage stability at −80 °C was determined after 15, 30, 60 and 90 d. Bench-top stability testing was also conducted. Samples were spiked in blank plasma and extracted, then analyzed in three replications at 25 °C for 0, 1, 2, 4, 6 and 8 h. The freeze–thaw cycles were stabilized. Rhodomyrtone was spiked in blank plasma, then stored in a freezer (−20 °C) and thawed every 24 h at room temperature (25 °C) for three cycles prior to extraction.

[5] = Long-term storage stability in plasma at −80 °C; assay type: in vitro ADME, rat; details: after 15, 30, 60 and 90 d
Method: as §1

[6] = system: Staphylococcus epidermidis ATCC 35984 (biofilm positive); design: method as in PMID 34067029; details: cited from earlier work
[7] = system: Bacillus cereus; design: method as in PMID 34067029; details: cited from earlier work
[8] = system: Streptococcus mutans; design: method as in PMID 19303274; details: cited from earlier work
[9] = system: Staphylococcus aureus ATCC 29213; design: method as in PMID 23019189, PMID 34067029; details: cited from earlier work
[10] = system: Staphylococcus aureus clinical isolated; design: method as in PMID 30583020; details: cited from earlier work
[11] = system: MRSA clinical isolated; details: cited from earlier work
[12] = system: staphylococcal isolates; details: most staphylococcal isolates; no reference given; cited from earlier work
[13] = system: MRSA; details: cited from earlier work
[14] = design: method as in PMID 32793420; details: cited from earlier work
[15] = system: S. aureus or MRSA; design: method as in PMID 23029218; details: 45 passages of stepwise isolation of S. aureus or MRSA on Luria-Bertani agar with rhodomyrtone; cited from earlier work
[16] = cited from earlier work
[17] = design: method as in PMID 26312207; details: humans; cited from earlier work
[18] = male, Sprague Dawley, plasma, rat, single oral dose 50 mg/kg, n = 12
[19] = male, Sprague-Dawley, plasma, rat, single oral dose 50 mg/kg, n = 12
[20] = male, Sprague-Dawley, plasma, rat, single oral dose 100 mg/kg, n = 12

In the case of `CC(=O)NC[C@H]1CN(c2ccc(N3CCOCC3)c(F)c2)C(=O)O1` [linezolid], the Cmax ([1]; 50 mg/kg) is listed as 25000 ng/mL and the half-life [1] is listed as 1.1 h.

Compound `CC(C)CC(=O)c1c(O)cc2c(c1O)[C@@H](CC(C)C)C1=C(O2)C(C)(C)C(=O)C(C)(C)C1=O` [rhodomyrtone, Rhodomyrtone] has a half-life ([2]; male, Sprague Dawley, plasma, rat, oral, 50 to 100 mg/kg, read-out: terminal elimination phase half-life (t1/2) (converted)) of roughly 2.5 h, a CL/F [2, 18] of 266 mL/min/kg and an AUC(0-t) [2, 18] of 2680 ± 1090 ng·h/mL. It also gave a half-life ([2]; male, Sprague Dawley, plasma, rat, single oral dose 50 mg/kg, n = 12, read-out: t1/2 (converted)) of 2.2 ± 0.74 h, a CL/F ([2]; male, Sprague Dawley, plasma, rat, single oral dose 100 mg/kg, n = 12) of 221 mL/min/kg and a half-life ([2]; male, Sprague Dawley, plasma, rat, single oral dose 100 mg/kg, n = 12, read-out: t1/2 (converted)) of 2.53 ± 0.92 h. For the same compound, the bioavailability ([2]; male, Sprague Dawley, rat, plasma, oral, estimated from SwissADME bioavailability score and AUC, no intravenous data) was roughly 10%, the Tmax ([2]; male, Sprague Dawley, rat, plasma, 50 mg/kg, rat, single oral dose 50 mg/kg, n = 12, mean ± SD, read-out: Tmax) was 1.92 ± 0.29 h and the Vd/F ([2]; male, Sprague Dawley, rat, plasma, 50 mg/kg, rat, single oral dose 50 mg/kg, n = 12, read-out: Vz/F) was 48.5 ± 16.9 L/kg. The Vd/F ([2]; male, Sprague Dawley, rat, plasma, 100 mg/kg, rat, oral, 50 and 100 mg/kg doses (not significantly different), read-out: apparent total volume of distribution (Vz/F)) was roughly 50 L/kg, the Tmax ([2]; male, Sprague Dawley, rat, plasma, 100 mg/kg, rat, oral, both 50 and 100 mg/kg doses, read-out: time to maximum plasma concentration (Tmax)) was 2 h and the Tmax ([2]; male, Sprague Dawley, rat, plasma, 100 mg/kg, rat, single oral dose 100 mg/kg, n = 12, mean ± SD, read-out: Tmax) was 2 h. It also gave a Vd/F ([2]; male, Sprague Dawley, rat, plasma, 100 mg/kg, rat, single oral dose 100 mg/kg, n = 12, read-out: Vz/F) of 46.6 ± 13.8 L/kg, a concentration at 8 h ([2]; male, Sprague Dawley, rat plasma, oral 50 mg/kg, 8 h) of roughly 100 ng/mL and a Cmax ([2]; male, Sprague Dawley, rat plasma, single oral dose 50 mg/kg, n = 12) of 570 ± 120 ng/mL. For the same compound, the Cmax ([2]; male, Sprague Dawley, rat plasma, single oral dose 100 mg/kg, n = 12) was 1310 ± 200 ng/mL, the AUC(0-inf) [2, 19] was 3410 ± 1040 ng·h/mL and the k el [2, 19] was 0.000139 s⁻¹. It also gave an AUC(0-inf) [2, 20] of 7820 ± 1530 ng·h/mL, an AUC(0-t) [2, 20] of 6650 ± 1130 ng·h/mL and a k el [2, 20] of 8.33e-05 s⁻¹. The Cmin ([2]; rat plasma, single oral dose 50 mg/kg, n = 12) was 140 ± 60 ng/mL, the Cmin ([2]; rat plasma, single oral dose 100 mg/kg, n = 12) was 310 ± 90 ng/mL and the “time of rhodomyrtone concentrations above MIC (0.5–1 μg/mL) of most staphylococcal isolates” value ([2]; rat, oral 50 mg/kg) was “approximately 4 h”. The “Cmax relative to the MBCs for MRSA (0.03–1.00 μg/mL)” value ([2]; rat, oral 100 mg/kg) was 2–3 times, the “time of rhodomyrtone concentrations above MIC (0.5–1 μg/mL) of most staphylococcal isolates” value ([2]; rat, oral 100 mg/kg) was roughly 8 h and the “AUC0–8 as share of AUC0–∞” value ([2]; rat, oral, 8 h sampling time) was “about 80%”. For the same compound, the “Bench-top stability, Accuracy (%)” value ([3]; 0 h, 0.1 µg/mL) was 108.10%, the “Bench-top stability, Accuracy (%)” value ([3]; 0 h, 100 µg/mL) was 97.34% and the “Bench-top stability, accuracy (range over all time points)” value ([3]; 0 to 8 h, 0.1 and 100 µg/mL) was 92–109%. For the same compound, the “Bench-top stability, Accuracy (%)” value ([3]; 1 h, 0.1 µg/mL) was 93.38%, the “Bench-top stability, Accuracy (%)” value ([3]; 1 h, 100 µg/mL) was 96.58% and the “Bench-top stability, Accuracy (%)” value ([3]; 2 h, 0.1 µg/mL) was 108.61%. For the same compound, the “Bench-top stability, Accuracy (%)” value ([3]; 2 h, 100 µg/mL) was 95.97%, the “Bench-top stability, Accuracy (%)” value ([3]; 4 h, 0.1 µg/mL) was 101.47% and the “Bench-top stability, Accuracy (%)” value ([3]; 4 h, 100 µg/mL) was 94.58%. For the same compound, the “Bench-top stability, Accuracy (%)” value ([3]; 6 h, 0.1 µg/mL) was 101.24%, the “Bench-top stability, Accuracy (%)” value ([3]; 8 h, 0.1 µg/mL) was 95.96% and the “Freeze–thaw stability, Accuracy (%)” value ([4]; Day 0, 0.1 µg/mL) was 110.31%. For the same compound, the “Freeze–thaw stability, Accuracy (%)” value ([4]; Day 0, 100 µg/mL) was 103.71%, the “Freeze–thaw stability, Accuracy (%)” value ([4]; Day 3 (three cycles −20 °C / 25 °C), 0.1 µg/mL) was 105.93% and the “Freeze–thaw stability, Accuracy (%)” value ([4]; Day 3 (three cycles −20 °C / 25 °C), 100 µg/mL) was 108.10%. For the same compound, the “Long-term stability, accuracy” value [5] was 94–114%, the MIC [6] was 0.39 µg/mL (≈ 0.881 µM) and the MIC [7] was 0.39 µg/mL (≈ 0.881 µM). For the same compound, the MIC [8] was 0.19 µg/mL (≈ 0.429 µM), the MIC [9] was 0.5 µg/mL (≈ 1.13 µM) and the MIC [10] was 0.5 to 2 µg/mL. For the same compound, the MIC [11] was 0.39 to 0.78 µg/mL, the MIC [12] was 0.5 to 1 µg/mL and the MBCs [13] was 0.03 to 1.00 µg/mL. For the same compound, the LD50 [14] was 2000 mg/kg and the resistance development [15] was “not found to be resistant”.

In the case of `CN[C@H](CC(C)C)C(=O)N[C@H]1C(=O)N[C@@H](CC(N)=O)C(=O)N[C@H]2C(=O)N[C@H]3C(=O)N[C@H](C(=O)N[C@H](C(=O)O)c4cc(O)cc(O)c4-c4cc3ccc4O)[C@H](O)c3ccc(c(Cl)c3)Oc3cc2cc(c3O[C@@H]2O[C@H](CO)[C@@H](O)[C@H](O)[C@H]2O[C@H]2C[C@](C)(N)[C@H](O)[C@H](C)O2)Oc2ccc(cc2Cl)[C@H]1O` [vancomycin], the half-life ([16]; intramuscular and intraperitoneal administration) is listed as 0.6 h, the oral bioavailability ([16]; rats) is listed as “below 0.5%” and the oral bioavailability [17] is listed as less than 10%.
